From patent publication US20250074910A1, “MENIN INHIBITOR AND USE THEREOF” (HITGEN INC., priority 2021, published 2025)
pIC50: −log10 of the molar value.

Test system: OCI-AML3
Experiment: Cell proliferation inhibition (CellTiter-Glo), OCI-AML3 (NPM1 mutation)
Type: cell-based
Details: Homo sapiens, OCI-AML-3, 168 h, OCI-AML3 cells
Experimental: (§1) Test Example 2: Test of the Inhibitory Ability of Menin-MLL Interaction Inhibitors on Cell Proliferation
(§2) The inhibitory ability of the compounds of the present disclosure on the proliferation of tumor cell lines (including cell lines containing MLL fusion protein such as MV4-11, MOLM-13, THP-1 and NOMO-1, control cell lines without MLL fusion protein such as HL-60, K562 and MOLM-16, and cell lines containing NPM1 mutation such as OCI-AML3) was evaluated by using the cell viability analysis method. The cells were plated in 96-well plates at a certain concentration (e.g., 5,000-20,000 cells/well), and then an equal volume of culture medium containing 2 times the final concentration of the test compound (the final concentration ranging 10 from 1 nM to 10 μM) was added. The plates were placed in an incubator and cultured at 37° C. and 5% CO2 for 72-168 h. Before the test, an equal volume of CellTiter-Glo® Luminescent reagent was added, and the plate was incubated at room temperature for 10 min before detection using an ELISA reader (BMG LABTECH). The data were analyzed using GraphPad Prism software to obtain the IC50 value and compound fitting curve. The control compound 1 was prepared by referring to the method of Example 64 in WO2017214367.

Structure (SMILES)	GI50 [nM]
[2H]C([2H])([2H])C1C[C@]2(CC[C@@H](CN3CCC4(CC3)CN(c3ncnnc3Oc3ccc(F)cc3C(=O)N(CC)C(C)C)C4)CC2)NC1=O (single isomer, unassigned) [Example 42-1]	111
[2H]C([2H])([2H])C1C[C@]2(CC[C@@H](CN3CCC4(CC3)CN(c3ncnnc3Oc3ccc(F)cc3C(=O)N(C(C)C)C(C)C)C4)CC2)NC1=O (single isomer, unassigned) [Example 43-1]	92

Test system: not listed separately
Experiment: Stability in mouse liver microsomes
Type: in vitro ADME
Details: liver microsomes, pH 7.4, 0.5 mg/mL microsomal protein, 1.00 μM compound, NADPH, read-out: Half life T1/2, mouse liver microsomes
Experimental: (§3) Test Example 3: Test of Stability of Compounds in Liver Microsome
(§4) Test purpose: To determine the stability of some of the compounds of the present disclosure in mouse, dog and human liver microsomes by LC-MS/MS method.
(§5) Test materials: The test drugs were in-house prepared example compounds of the present disclosure; the positive reference compound SNDX-5613 was prepared by the method of Example 253 in patent WO2017214367; the control compound 1 was prepared by the method of Example 64 in WO2017214367; liver microsomes were purchased from CORNING.
(§6) The total volume of each incubation system was approximately 45 μL, and the medium was 100 mM phosphate buffer (PBS, pH 7.4), including liver microsomal protein at a final concentration of 0.5 mg/mL, 1.00 μM compound and 2.00 mM NADPH, and the organic phase content was <1%. Incubation was performed in a 37° C. incubator, and 135 μL of ice-cold acetonitrile was added after 0, 5, 15, 30 and 60 min of reaction to terminate the reaction. The positive control group was incubated with 1.00 μM Ketanserin, 0.5 mg/mL liver microsomal protein and 2.00 mM NADPH in a 37° C. incubator for 0, 5, 15, 30 and 60 min respectively, and then 135 μL of ice-cold acetonitrile was added to terminate the reaction. The 96-well plates were shaken at 600 rpm for 10 min and then centrifuged at 4700 rpm at 4° C. for 15 min. 80 μL of supernatant was mixed with 320 μL of pure water, and the remaining amount of the compound was detected by LC-MS/MS method. The in vitro half life (T½) and intrinsic clearance (CLint) were calculated according to the following formula:
(§7) Intrinsic clearance (Clint)=(0.693/T1/2)×(1/liver microsome concentration)×conversion factor. k is the linear regression slope of the remaining percentage of the ln compound-incubation time.

Structure (SMILES)	half-life at 1 μM [min]
[2H]C([2H])([2H])C1C[C@]2(CC[C@@H](CN3CCC4(CC3)CN(c3ncnnc3Oc3ccc(F)cc3C(=O)N(CC)C(C)C)C4)CC2)NC1=O (single isomer, unassigned) [Example 42-1]	> 120
[2H]C([2H])([2H])C1C[C@]2(CC[C@@H](CN3CCC4(CC3)CN(c3ncnnc3Oc3ccc(F)cc3C(=O)N(C(C)C)C(C)C)C4)CC2)NC1=O (single isomer, unassigned) [Example 43-1]	70

Test system: MOLM-13
Experiment: Cell proliferation inhibition (CellTiter-Glo), MOLM-13
Type: cell-based
Details: Homo sapiens, MOLM-13, 168 h, MOLM-13 cells
Experimental: as §1, §2

Structure (SMILES)	GI50 [nM]
[2H]C([2H])([2H])C1C[C@]2(CC[C@@H](CN3CCC4(CC3)CN(c3ncnnc3Oc3ccc(F)cc3C(=O)N(CC)C(C)C)C4)CC2)NC1=O (single isomer, unassigned) [Example 42-1]	216
[2H]C([2H])([2H])C1C[C@]2(CC[C@@H](CN3CCC4(CC3)CN(c3ncnnc3Oc3ccc(F)cc3C(=O)N(C(C)C)C(C)C)C4)CC2)NC1=O (single isomer, unassigned) [Example 43-1]	133

Test system: not listed separately
Experiment: Stability in dog liver microsomes
Type: in vitro ADME
Details: dog, liver microsomes, pH 7.4, Dog; 0.5 mg/mL microsomal protein, 1.00 μM compound, NADPH; read-out: Half life T1/2, dog liver microsomes
Experimental: as §3, §4, §5, §6, §7

Structure (SMILES)	half-life at 1 μM [min]
[2H]C([2H])([2H])C1C[C@]2(CC[C@@H](CN3CCC4(CC3)CN(c3ncnnc3Oc3ccc(F)cc3C(=O)N(CC)C(C)C)C4)CC2)NC1=O (single isomer, unassigned) [Example 42-1]	79.9
[2H]C([2H])([2H])C1C[C@]2(CC[C@@H](CN3CCC4(CC3)CN(c3ncnnc3Oc3ccc(F)cc3C(=O)N(C(C)C)C(C)C)C4)CC2)NC1=O (single isomer, unassigned) [Example 43-1]	35.4

Test system: not listed separately
Experiment: Stability in human liver microsomes
Type: in vitro ADME
Details: human, liver microsomes, pH 7.4, Human; 0.5 mg/mL microsomal protein, 1.00 μM compound, NADPH; read-out: Half life T1/2, human liver microsomes
Experimental: as §3, §4, §5, §6, §7

Structure (SMILES)	half-life at 1 μM [min]
[2H]C([2H])([2H])C1C[C@]2(CC[C@@H](CN3CCC4(CC3)CN(c3ncnnc3Oc3ccc(F)cc3C(=O)N(CC)C(C)C)C4)CC2)NC1=O (single isomer, unassigned) [Example 42-1]	45.4
[2H]C([2H])([2H])C1C[C@]2(CC[C@@H](CN3CCC4(CC3)CN(c3ncnnc3Oc3ccc(F)cc3C(=O)N(C(C)C)C(C)C)C4)CC2)NC1=O (single isomer, unassigned) [Example 43-1]	34.9

Biological target: Menin/MLL-4-43 peptide interaction (Homo sapiens (Human), UniProt O00255)
Sequence (O00255 whole entry, species assumed): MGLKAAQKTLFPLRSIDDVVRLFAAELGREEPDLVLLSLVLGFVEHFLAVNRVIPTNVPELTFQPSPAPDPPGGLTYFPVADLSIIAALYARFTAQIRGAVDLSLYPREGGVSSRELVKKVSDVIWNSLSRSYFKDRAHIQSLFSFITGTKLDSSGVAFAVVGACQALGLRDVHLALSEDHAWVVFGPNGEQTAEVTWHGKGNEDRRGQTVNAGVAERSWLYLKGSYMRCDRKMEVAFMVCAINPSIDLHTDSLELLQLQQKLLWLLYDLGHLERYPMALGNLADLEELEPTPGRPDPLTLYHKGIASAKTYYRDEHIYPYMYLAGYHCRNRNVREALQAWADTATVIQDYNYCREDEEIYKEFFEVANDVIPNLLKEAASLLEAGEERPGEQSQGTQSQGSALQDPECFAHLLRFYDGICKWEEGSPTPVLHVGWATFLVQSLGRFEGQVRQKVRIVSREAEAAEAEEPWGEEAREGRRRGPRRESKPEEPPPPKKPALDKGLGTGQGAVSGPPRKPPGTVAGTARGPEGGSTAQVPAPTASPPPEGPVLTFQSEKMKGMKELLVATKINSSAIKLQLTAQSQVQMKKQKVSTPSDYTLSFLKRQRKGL
Experiment: Menin-MLL interaction inhibitory activity assay (fluorescence polarization competition)
Type: binding
Details: FITC-MLL4-43-peptide, Menin recombinant protein
Experimental: Test Example 1: Menin-MLL Interaction Inhibitory Activity Assay
The inhibition of Menin/MLL-4-43 peptide interaction by small molecule inhibitors was quantitatively detected by fluorescence polarization competition assay. The experiment was performed in a 384-well plate (Corning, Cat #3575) using a reaction buffer consisting of 50 mM Tris, pH 7.5, 50 mM NaCl, and 1 mM DTT. A 40 μL reaction system included 10 μL of 8 nM Menin recombinant protein and 10 μL of the test compound at different concentrations. The compound was pre-incubated with Menin protein for 15 min, and then 20 μL of 10 nM FITC-MLL4-43-peptide was added. After incubation on a shaker at 25° C. for 60 min, the fluorescence polarization signal (FP 485 520 520) was read using BMG PHERAStar detection. The experimental data was analyzed and processed by GraphPad Prism 6 software to obtain the IC50 value. The control compound 1 was prepared by referring to the method of Example 64 in WO2017214367.

Structure (SMILES)	pIC50
[2H]C([2H])([2H])C1C[C@]2(CC[C@@H](CN3CCC4(CC3)CN(c3ncnnc3Oc3ccc(F)cc3C(=O)N(CC)C(C)C)C4)CC2)NC1=O (single isomer, unassigned) [Example 42-1]	7.82
[2H]C([2H])([2H])C1C[C@]2(CC[C@@H](CN3CCC4(CC3)CN(c3ncnnc3Oc3ccc(F)cc3C(=O)N(C(C)C)C(C)C)C4)CC2)NC1=O (single isomer, unassigned) [Example 43-1]	7.91

Test system: MV4-11
Experiment: Cell proliferation inhibition (CellTiter-Glo), MV4-11
Type: cell-based
Details: Homo sapiens, MV4-11, 72 h, MV4-11 cells
Experimental: as §1, §2

Structure (SMILES)	GI50 [nM]
[2H]C([2H])([2H])C1C[C@]2(CC[C@@H](CN3CCC4(CC3)CN(c3ncnnc3Oc3ccc(F)cc3C(=O)N(CC)C(C)C)C4)CC2)NC1=O (single isomer, unassigned) [Example 42-1]	45.4

Same assay, conditions: MV4-11 cells, 72 h

Structure (SMILES)	GI50 [nM]
[2H]C([2H])([2H])C1C[C@]2(CC[C@@H](CN3CCC4(CC3)CN(c3ncnnc3Oc3ccc(F)cc3C(=O)N(C(C)C)C(C)C)C4)CC2)NC1=O (single isomer, unassigned) [Example 43-1]	27.8
